Target: T1, 17β-HSD (Homo sapiens, UniProt P14061)
T1 sequence (P14061 1-328): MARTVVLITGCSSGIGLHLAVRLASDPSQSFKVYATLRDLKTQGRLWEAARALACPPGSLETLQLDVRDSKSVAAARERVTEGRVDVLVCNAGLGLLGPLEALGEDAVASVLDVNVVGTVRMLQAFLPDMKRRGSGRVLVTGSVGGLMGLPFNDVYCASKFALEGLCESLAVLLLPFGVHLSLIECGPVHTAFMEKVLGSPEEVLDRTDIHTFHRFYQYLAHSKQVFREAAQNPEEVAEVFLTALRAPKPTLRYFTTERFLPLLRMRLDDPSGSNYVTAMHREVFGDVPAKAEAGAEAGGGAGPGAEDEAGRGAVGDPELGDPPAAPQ
Assay: Time-dependent inactivation of 17β-HSD (NADH production at 340 nm with estradiol and NAD+)
Format: biochemical
Experimental: The compounds of the invention prepared as described above were tested for their ability to affect the reaction catalyzed by 17β-HSD, as follows.
Approximately 5 μl of a 2-20 mM solution of the test compound in absolute alcohol was added to the incubation mixture, which contained:
200 μM NAD^+ (100 μl of 2 mM stock);
795 μl 100 mM sodium carbonate buffer (pH 9.2, containing 20% glycerol) or 795 μl phosphate buffer (pH 7.4, 20% glycerol);
90 μg of enzyme (supplied as 100 μl of 0.9 μg/μl stock).
Aliquots were removed at intervals and added to 950 μl of assay cocktail, which contained:
100 mM sodium carbonate buffer;
60 μM estradiol in propylene glycol stock;
0.8% human serum albumin.
The activity remaining in the incubation mixture was assessed by NADH production in the assay cocktail monitored by adsorption at 340 nm every 15 sec for 2 min with an automated spectrophotometer.
All aqueous stock solutions were prepared in 100 mM sodium carbonate buffer, 20% glycerol, to maintain enzyme stability. Where additional components were added, such as glutathione, volumes were adjusted accordingly. To assess loss of enzyme activity independent of the test compound, 5 μl ethanol was added in place of steroid stock solution to the assay cocktail.
When aliquots were withdrawn less than 3 min apart, the aliquot was quenched in 900 μl assay buffer without NAD^+ and supplemented with 5 mM glutathione: after all aliquots were withdrawn, samples were assayed by adding NAD^+ (50 μl of a 4 mM stock) and monitored as above.
Compounds of the invention were evaluated in terms of Km, Vmax, and Rp.

Structure (SMILES) | substrate for the enzyme (presence of NAD+) | effect of NADH on inactivation of the enzyme (presence of NADH) | effect of glutathione on inactivation of the enzyme (5 mM glutathione)
C#CC(=O)[C@@]1(C)CC[C@@H]2c3ccc(O)cc3CC[C@H]2C1 [--COC.ident.CH, [2S-(2α,4aα,10aβ)]-1-(1,2,3,4,4a,9,10,10a-Octahydro-7-hydroxy-2-methyl-2-phenanthrenyl)-2-propyn-1-one] | not a substrate for the enzyme in the presence of NAD^+ | inactivation of the enzyme is inhibited by the presence of NADH | –
C#CC(O)C1(C)CCC2c3ccc(O)cc3CCC2C1 (stereo not drawn) [--CH(OH)C.ident.CH, [2S-[2α(S*),4aα,10aβ]]-α-Ethynyl-1,2,3,4,4a,9,10,10a-octahydro-7-hydroxy-2-methyl-2-phenanthrenemethanol] | – | – | 5 mM glutathione protects the enzyme from inactivation
